Where two headings read alike, the source gives them in different places.
Tests used:
HCT116 WT cells = assay: HCT116 proliferation assay, WT cells (CellTiter-Glo, 6 days); format: cell-based; conditions: Homo sapiens, HCT-116, 144 h, read-out: Prolif_HCT116-WT IC50
Method in brief: (§1)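 Seed cells in RPMI 1640 supplemented with 10% FBS and incubate overnight at 37° C under 5% CO2. Treat with serially diluted compound (threefold steps, 8 or 9 points, highest 1 or 10 µM) or DMSO alone, then quantify viability by luminescence.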

PRMT5/MEP50 = PRMT5/MEP50 (Homo sapiens, UniProt O14744); assay: MTase-Glo methyl transferase assay, Method A (Histone H4 peptide, 1 µM MTA, 24 h pre-incubation); format: biochemical; design: made in house; conditions: read-out: PRMT5 MTase Glo Ki (nM, Meth. A)
Chain of PRMT5/MEP50 (O14744 whole entry): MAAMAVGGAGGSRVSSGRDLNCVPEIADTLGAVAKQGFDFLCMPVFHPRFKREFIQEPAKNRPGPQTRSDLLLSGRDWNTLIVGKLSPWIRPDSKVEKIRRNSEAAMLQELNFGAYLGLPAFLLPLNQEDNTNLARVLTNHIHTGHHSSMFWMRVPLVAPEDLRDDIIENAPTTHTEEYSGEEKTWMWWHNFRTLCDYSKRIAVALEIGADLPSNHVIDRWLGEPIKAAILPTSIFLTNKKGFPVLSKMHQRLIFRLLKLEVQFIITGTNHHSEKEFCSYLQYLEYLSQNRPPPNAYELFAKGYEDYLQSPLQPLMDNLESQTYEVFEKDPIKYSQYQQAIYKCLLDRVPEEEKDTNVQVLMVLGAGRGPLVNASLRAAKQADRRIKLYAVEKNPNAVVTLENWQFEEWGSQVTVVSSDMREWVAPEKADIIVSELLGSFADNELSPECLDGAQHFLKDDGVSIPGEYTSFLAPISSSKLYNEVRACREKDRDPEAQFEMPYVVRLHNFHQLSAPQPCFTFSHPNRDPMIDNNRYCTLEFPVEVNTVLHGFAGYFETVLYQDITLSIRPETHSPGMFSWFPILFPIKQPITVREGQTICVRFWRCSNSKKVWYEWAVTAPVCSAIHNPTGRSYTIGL
Chain of PRMT5/MEP50 (Q9BQA1 whole entry partner): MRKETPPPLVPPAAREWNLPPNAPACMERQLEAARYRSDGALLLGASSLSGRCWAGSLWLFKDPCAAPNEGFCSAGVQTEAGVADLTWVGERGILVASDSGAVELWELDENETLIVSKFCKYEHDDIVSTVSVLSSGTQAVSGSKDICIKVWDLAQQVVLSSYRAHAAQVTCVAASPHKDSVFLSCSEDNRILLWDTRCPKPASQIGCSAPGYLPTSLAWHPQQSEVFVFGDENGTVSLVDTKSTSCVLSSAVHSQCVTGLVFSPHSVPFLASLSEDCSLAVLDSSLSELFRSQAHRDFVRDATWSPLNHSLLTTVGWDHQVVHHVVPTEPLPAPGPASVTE
Method in brief: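 Luminescent SAH detection (MTase-Glo) after a 2 h room-temperature methylation of 1 µM biotinylated H4 (1-21) peptide by 10 nM PRMT5/MEP50 with 5 µM SAM, in 50 mM Tris pH 8.0.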

HCT116 MTAP null cells = assay: HCT116 proliferation assay, MTAP null cells (CellTiter-Glo, 6 days); format: cell-based; conditions: 144 h, read-out: Protif_ HCT116-MTAP null IC50
Method in brief: as §1

Structure (SMILES) | IC50 (HCT116 WT cells) [nM] | Ki (PRMT5/MEP50) [nM] | IC50 (HCT116 MTAP null cells; HCT116-MTAP null) [nM] | IC50 (HCT116 MTAP null cells) [nM]
Cc1cc2cc(C(=O)N(Cc3ccc(C(F)(F)F)cn3)[C@H](C)c3ncn(C)n3)c(F)cc2nc1N (single isomer, unassigned) [Example 497] | 462 | 0.19 | 35 | –
Cc1cc2cc(C(=O)N(Cc3cnc(C(F)(F)F)cn3)[C@H](C)c3ncccn3)ccc2nc1N (single isomer, unassigned) [Example 449] | 5900 | 0.27 | 168 | –
Cc1cc2cc(C(=O)N(Cc3ccc(C(F)(F)F)cn3)Cc3ncccc3Cl)ccc2nc1N [Example 303, 2-amino-N-((3-chloro-2-pyridinyl)methyl)-3-methyl-N-((5-(trifluoromethyl)-2-pyridinyl)methyl)-6-quinolinecarboxamide] | 600 | 0.01 | 32 | –
Cc1cc2cc(C(=O)N(Cc3ccc(C(F)(F)F)nn3)[C@@H]3CCC[C@H]3O)ccc2nc1N [Example 363, 2-amino-N-((1R,2R)-2-hydroxycyclopentyl)-3-methyl-N-((6-(trifluoromethyl)pyridazin-3-yl)methyl)quinoline-6-carboxamide] | 7160 | 0.2 | 326 | –
Cc1cc2cc(C(=O)N(Cc3ccc(C(F)(F)F)cn3)C[C@@H](C)C(F)(F)F)ccc2nc1N (single isomer, unassigned) [Example 457] | > 10000 | 0.78 | – | 717
Cc1cc2cc(C(=O)N(Cc3ccc(C(F)(F)F)nn3)[C@H](C)c3cscn3)ccc2nc1N (single isomer, unassigned) [Example 533] | 755 | 0.02 | 19 | –
[2H]C([2H])([2H])c1cc2cc(C(=O)N(Cc3ccc(C(F)(F)F)cn3)[C@H](C)c3ncccc3F)ccc2nc1N [Example 440, (R)-2-amino-N-(1-(3-fluoropyridin-2-yl)ethyl)-3-(methyl-d3)-N-((5-(trifluoromethyl)pyridin-2-yl)methyl)quinoline-6-carboxamide] | 690 | < 0.1 | – | 38
Nc1nc2ccc(C(=O)N(Cc3ccc(C(F)(F)F)cn3)Cc3ncccn3)cc2cc1Br [Example 317, 2-amino-3-bromo-N-(2-pyrimidinylmethyl)-N-((5-(trifluoromethyl)-2-pyridinyl)methyl)-6-quinolinecarboxamide] | > 10000 | 0.56 | 612 | –
C[C@H](c1ncccc1F)N(Cc1ccc(C(F)(F)F)nn1)C(=O)c1cnc2nc(N)c(Br)cc2c1 [Example 397, 7-amino-6-bromo-N-((1R)-1-(3-fluoro-2-pyridinyl)ethyl)-N-((6-(trifluoromethyl)-3-pyridazinyl)methyl)-1,8-naphthyridine-3-carboxamide] | 7960 | 0.23 | 286 | –
Cc1cc2cc(C(=O)N(Cc3ncc(C(F)(F)F)s3)[C@H](C)c3ncccn3)ccc2nc1N (single isomer, unassigned) [Example 492] | 3390 | 0.22 | 175 | –
Cc1cc2cc(C(=O)N(Cc3ccc(C#N)cn3)[C@@H]3CCOc4cccnc43)ccc2nc1N (single isomer, unassigned) [Example 519] | 1700 | 0.13 | 62 | –
Cc1cc2cc(C(=O)N(Cc3ccc(C#N)cn3)[C@H](C)c3ncccc3F)c(F)cc2nc1N [Example 353, 2-amino-N-((5-cyano-2-pyridinyl)methyl)-7-fluoro-N-((1R)-1-(3-fluoro-2-pyridinyl)ethyl)-3-methyl-6-quinolinecarboxamide] | 1510 | 0.02 | 73 | –
CO[C@@H](CN(Cc1ccc(C(F)(F)F)cn1)C(=O)c1cnc2nc(N)c(Br)cc2c1)C(F)(F)F (single isomer, unassigned) [Example 454] | 3940 | 0.15 | 252 | –
C[C@H](c1ncccc1F)N(Cc1ccc(C(F)(F)F)cn1)C(=O)c1cnc2nc(N)c(Br)cc2c1 [Example 388, 7-amino-6-bromo-N-((1R)-1-(3-fluoro-2-pyridinyl)ethyl)-N-((5-(trifluoromethyl)-2-pyridinyl)methyl)-1,8-naphthyridine-3-carboxamide] | 4880 | 0.15 | 137 | –
COc1ccc(CN(C(=O)c2ccc3nc(N)c(Cl)cc3c2)[C@H](C)c2ncccn2)nn1 [Example 413, 2-amino-3-chloro-N-((6-methoxy-3-pyridazinyl)methyl)-N-((1R)-1-(2-pyrimidinyl)ethyl)-6-quinolinecarboxamide] | > 10000 | 0.65 | 655 | –
CC[C@H](c1ncccn1)N(Cc1ccc(C(F)F)cn1)C(=O)c1cnc2nc(N)c(Br)cc2c1 (single isomer, unassigned) [Example 500] | 4590 | 0.52 | 187 | –
CC(=O)N1CCC(c2ccc(CN(C(=O)c3ccc4nc(N)c(C)cc4c3)[C@H](C)c3ncccn3)nc2)CC1 [Example 552, N-((5-(1-acetyl-4-piperidinyl)-2-pyridinyl)methyl)-2-amino-3-methyl-N-((1R)-1-(2-pyrimidinyl)ethyl)-6-quinolinecarboxamide] | 2550 | 0.32 | 220 | –
Cc1cc2cc(C(=O)N(Cc3ccc(C(F)(F)F)nn3)[C@H](C)c3ncccc3F)ccc2nc1N [Example 510, 2-amino-N-((1R)-1-(3-fluoro-2-pyridinyl)ethyl)-3-methyl-N-((6-(trifluoromethyl)-3-pyridazinyl)methyl)-6-quinolinecarboxamide] | 1910 | 0.32 | 70 | –
COC[C@H](c1ccccn1)N(Cc1ccc(C(F)(F)F)cn1)C(=O)c1ccc2nc(N)c(C)cc2c1 (single isomer, unassigned) [Example 530] | 1710 | 0.18 | 108 | –
Cc1cc2cc(C(=O)N(Cc3ccc(C(F)(F)F)cn3)C3(c4ncccn4)CC3)ccc2nc1N [Example 430, 2-amino-3-methyl-N-(1-(2-pyrimidinyl)cyclopropyl)-N-((5-(trifluoromethyl)-2-pyridinyl)methyl)-6-quinolinecarboxamide] | > 10000 | 0.42 | 506 | –
Cc1cc2cc(C(=O)N(Cc3ccc(C(F)(F)F)nn3)[C@@H]3CCOc4cccnc43)ccc2nc1N (single isomer, unassigned) [Example 520] | 737 | 0.04 | 24 | –
Nc1nc2ncc(C(=O)N(Cc3ccc(C(F)(F)F)cn3)[C@@H](c3ncccn3)C3CC3)cc2cc1Br [Example 373, 7-amino-6-bromo-N-((R)-cyclopropyl(2-pyrimidinyl)methyl)-N-((5-(trifluoromethyl)-2-pyridinyl)methyl)-1,8-naphthyridine-3-carboxamide] | 1370 | 0.03 | 159 | –
Cc1cc2cc(C(=O)N(Cc3ccc(Br)cn3)CC(C)C)ccc2nc1N [Example 357, 2-amino-N-((5-bromo-2-pyridinyl)methyl)-3-methyl-N-(2-methylpropyl)-6-quinolinecarboxamide] | 7050 | 4.34 | 385 | –
Cc1cc2cc(C(=O)N(Cc3cnc(C(F)(F)F)cn3)[C@H](C)c3ccc(F)cn3)ccc2nc1N (single isomer, unassigned) [Example 483] | > 10000 | 1.02 | 515 | –
C[C@H](c1ncccn1)N(Cc1ccc(Br)nn1)C(=O)c1cnc2nc(N)c(Br)cc2c1 [Example 350, 7-amino-6-bromo-N-((6-bromo-3-pyridazinyl)methyl)-N-((1R)-1-(2-pyrimidinyl)ethyl)-1,8-naphthyridine-3-carboxamide] | > 10000 | 0.56 | 397 | –
C[C@H](c1ncccn1)N(Cc1ccc(C#N)cn1)C(=O)c1ccc2nc(N)c(Br)cc2c1 [Example 417, 2-amino-3-bromo-N-((5-cyano-2-pyridinyl)methyl)-N-((1R)-1-(2-pyrimidinyl)ethyl)-6-quinolinecarboxamide] | > 10000 | 0.33 | 151 | –
C[C@H](c1ncccn1)N(Cc1ccc(C#N)cn1)C(=O)c1cnc2nc(N)c(Br)cc2c1 [Example 406, 7-amino-6-bromo-N-((5-cyano-2-pyridinyl)methyl)-N-((1R)-1-(2-pyrimidinyl)ethyl)-1,8-naphthyridine-3-carboxamide] | > 10000 | 0.47 | 682 | –
C[C@H](c1ncccn1)N(Cc1ccc(C(F)F)cn1)C(=O)c1ccc2nc(N)c(Cl)cc2c1 [Example 381, 2-amino-3-chloro-N-((5-(difluoromethyl)-2-pyridinyl)methyl)-N-((1R)-1-(2-pyrimidinyl)ethyl)-6-quinolinecarboxamide] | 8970 | 0.33 | 194 | –
CC[C@H](c1ncccn1)N(Cc1ccc(C#N)cn1)C(=O)c1ccc2nc(N)c(C)cc2c1 (single isomer, unassigned) [Example 494] | 5420 | 0.66 | 194 | –
C[C@H](c1ncccn1)N(Cc1ccc(C(F)(F)F)nn1)C(=O)c1cnc2nc(N)c(Br)cc2c1 (single isomer, unassigned) [Example 444] | > 10000 | 0.15 | 327 | –

— patent publication US20230159510A1, “NOVEL PRMT5 INHIBITORS” (AMGEN INC., priority 2020, published 2023)
